Reference: article PMC10747112, “Triphenylphosphine Derivatives of Allylbenzenes Express Antitumor and Adjuvant Activity When Solubilized with Cyclodextrin-Based Formulations” (Pharmaceuticals, 2023)
Marks after values point to notes of the source that are not given here.

Columns and labels:
[1] = Dissociation constants of complexes with M-β-CD by FTIR spectroscopy (Hill fit); assay type: physicochemical; details: X-PPh3, complex 1:1 molar ratio, PBS
Description: (§1) FTIR spectroscopy provides valuable data on the interaction of molecules, including those applicable to characterize the non-covalent complexes of apiol-PPh3 (and analogues) with cyclodextrins and heparin. In the FTIR spectra of apiol-PPh3 and analogues (Figure 3a), one characteristic is the bands of valence oscillations of the bonds C=C of the aromatic system (1450–1650 cm^−1) overlapping with the bands of deformation oscillations C-H (1400–1500 cm^−1). The intensity of these peaks increases with the formation of non-covalent complexes of apiol-PPh3 and its analogues with cyclodextrins and heparin due to the transition of the solid phase into solution. Linear fitting of the intensity of peaks in the FTIR spectra on the cyclodextrin or heparin concentration (Section 2.3) in Hill coordinates allows determining the dissociation constants of the complexes (Table 2). The interactions of triphenylphosphine derivatives of allylbenzenes with γ-CD is rather weak (Kd 10 mM values). In the case of M-β-CD, the dissociation constants reach millimolar values, which is sufficient to obtain soluble forms of adjuvants (Table 2). Thus, the β-cyclodextrin derivatives are more suitable in terms of size for inclusion of the adjuvants studied. […] Comparing the values of the dissociation constants of alkylbenzenes and PPh3-derivatives complexes with cyclodextrins, we observed that these Kd values are close, which means that it is the allylbenzene-fragment (of apiol-PPh3) that plunges into the cyclodextrin cavity, and the triphenylphosphine radical looks outward (Figure 3b), which would provide the implementation of mitochondrial targeting of the developed formulations.
(§2) Non-covalent complexes of apiol, apiol-PPh3 and analogues with cyclodextrins (with different molar ratios) and heparin (15 kDa, 1:1 w/w) were obtained by adding solutions of cyclodextrins (100 mg/mL) or heparin (20 mg/mL) in PBS to apiol or apiol-PPh3 (or analogues) samples (2–3 mg). The excess of CDs or heparin was varied from 0.04 to 10 mol/mol. Then, mixtures were incubated for 1 h at 40 °C. Cyclodextrin or heparin are necessary for the solubilization of extremely poorly soluble compounds.
(§3) The ATR-FTIR spectra of samples (Section 3.3) were acquired using a Bruker Tensor 27 spectrometer equipped with a liquid N2 cooled MCT (mercury cadmium telluride) detector. Samples were placed in a thermostatic cell BioATR-II with ZnSe ATR element (Bruker, Germany). FTIR spectra were recorded from 850 to 4000 cm^−1 with 1 cm^−1 spectral resolution; 50 scans were accumulated and averaged. Spectral data were processed using the Bruker software system Opus 8.2.28 (Bruker, Germany). The spectrum of cyclodextrin or heparin in the corresponding concentration was subtracted from the spectra of the complexes. […]

[2] = Dissociation constants of complexes with heparin by FTIR spectroscopy (Hill fit); assay type: physicochemical; details: calculated per one unit of heparin C12H19NO20S3, PBS
Description: as §1, §2, §3

[3] = Solubility by UV spectroscopy (PBS, with and without M-β-CD); assay type: physicochemical; details: for solubility: aqueous buffer, thermodynamic from solid
Protocol: On the contrary, their complexes with M-β-CD are soluble, and a clear peak in the UV spectrum is pronounced (225 nm). Based on UV spectra data in the presence of M-β-CD, the increase in solubility of apiol-PPh3 and analogues by a second order of magnitude is observed (Table 2).
The solubility of apiol and apiol-PPh3 (or analogues) in aqueous solution was determined by UV spectroscopy. UV spectra were recorded on the UltraSpec 2100 pro device (AmerSham Biosciences, Cambridge, UK) three times. The substances were dissolved in acetonitrile followed by recording the UV spectra at various cytostatics’ concentrations, and then we plotted calibration dependencies. Next, saturated solutions of substances in water were prepared, and the spectra of the aqueous solutions were recorded. Considering the extinction coefficients in water and acetonitrile to be approximately equal, the solubility was determined.

whole blood = assay: Thrombogenicity (whole blood thrombosis); details: 0.1 mg/mL
Description: (§4) Hemolytic activity and thrombogenicity are the primary parameters for evaluating the safety of medical formulations. The phenotypic sea urchin embryo assay developed by colleagues is a visual way to study the toxicity of formulations in vivo. The sea urchin and human genomes contain more than 7000 common genes, including orthologs associated with a number of human diseases. Therefore, sea urchins can be considered as a reliable and versatile model organism for studying the safety of new and existing cytotoxic formulations in vivo. Table 5 presents data on the % of erythrocyte hemolysis, the degree of whole blood thrombosis of apiol-PPh3 and analogues, and data of phenotypic sea urchin embryo assay. Thus, the non-toxicity of PPh3 derivatives of allylbenzenes for normal non-cancer cells, as well as the selectivity of action against cancer cells, is shown. The selectivity of cytotoxic action against cancer cells in comparison with normal cells can be explained by the fact that the PPh3- cation provides selective accumulation and reduction in the mitochondrial membrane potential of the transformed cancer cells. Cyclodextrin (M-β-CD) and heparin are non-toxic (and approved by the FDA for intravenous application).
The hemolytic activity and thrombogenicity of apiol-PPh3 and analogues were studied using an earlier published technique.

sea urchin embryos = assay: Phenotypic sea urchin embryo assay; assay type: in vivo; details: X in M-β-CD
Description: as §4
Adult sea urchins, Paracentrotus lividus L. (Echinidae), were collected from the Mediterranean Sea on the Cyprus coast and kept in an aerated seawater tank and were used to study the cleavage alteration of Apiol-PPh3 and analogues. Experiments with sea urchin embryos comply with the requirements of biological ethics.

| SMILES | −lg Kd (X − M-β-CD) [1] | −lg Kd (X − Heparin) [2] | Solubility in the Presence of 0.05 M M-β-CD [3] | solubility [3] | Thrombosis Index (whole blood) | Concentration Causing Changes in Sea Urchin Embryos (sea urchin embryos) |
| --- | --- | --- | --- | --- | --- | --- |
| COc1cc(CCC[P+](c2ccccc2)(c2ccccc2)c2ccccc2)c(OC)c(OC)c1OC [Allyltetramethoxybenzene-PPh3] | 3.1 ± 0.2 | 3.2 ± 0.1 | 17 ± 5 mM | 70 ± 10 µM | 0.7 ± 0.2% | >4 *** μM |
| COc1cc(CCC[P+](c2ccccc2)(c2ccccc2)c2ccccc2)c(OC)c2c1OCO2 [Apiol-PPh3] | 2.9 ± 0.3 | 2.7 ± 0.2 | 15 ± 2 mM | 80 ± 10 µM | 1.1 ± 0.2% | >4 *** μM |
| COc1c(CCC[P+](c2ccccc2)(c2ccccc2)c2ccccc2)cc2c(c1OC)OCO2 [Dillapiol-PPh3] | 2.6 ± 0.2 | 3.0 ± 0.3 | 8 ± 1 mM | 90 ± 10 µM | 1.0 ± 0.1% | >4 *** μM |
| COc1cc(CCC[P+](c2ccccc2)(c2ccccc2)c2ccccc2)cc2c1OCO2 [Myristicin-PPh3] | 3.0 ± 0.3 | 2.6 ± 0.2 | 12 ± 3 mM | 40 ± 5 µM | 1.5 ± 0.2% | >4 *** μM |
